Test results reported in PubChem BioAssay (NCI).
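Five concentrations, 48 hours, 96-well plates. TGI: total growth inhibition.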

Tests used:
Assay in all cases: NCI anticancer screen, dose series, 48 h
RPMI-8226 leukemia = tested on: RPMI-8226 leukemia
MDA-MB-231 breast = tested on: MDA-MB-231 breast
TK-10 renal = tested on: TK-10 renal
SN12C renal = tested on: SN12C renal
HOP-92 NSCLC = tested on: HOP-92 NSCLC
U251 CNS = tested on: U251 CNS
K-562 leukemia = tested on: K-562 leukemia
SK-MEL-28 melanoma = tested on: SK-MEL-28 melanoma
SR leukemia = tested on: SR leukemia
HL-60(TB) leukemia = tested on: HL-60(TB) leukemia
UACC-257 melanoma = tested on: UACC-257 melanoma
CAKI-1 renal = tested on: CAKI-1 renal
ACHN renal = tested on: ACHN renal
MDA-MB-435 = tested on: MDA-MB-435
BT-549 breast = tested on: BT-549 breast
UACC-62 melanoma = tested on: UACC-62 melanoma
SF-268 CNS = tested on: SF-268 CNS
SW-620 colon = tested on: SW-620 colon
NCI/ADR-RES ovarian = tested on: NCI/ADR-RES ovarian
NCI-H226 lung = tested on: NCI-H226 lung
CCRF-CEM leukemia = tested on: CCRF-CEM leukemia
SNB-75 CNS = tested on: SNB-75 CNS
MDA-N = tested on: MDA-N
MOLT-4 leukemia = tested on: MOLT-4 leukemia
HCT-15 colon = tested on: HCT-15 colon
A498 renal = tested on: A498 renal
OVCAR-4 ovarian = tested on: OVCAR-4 ovarian
OVCAR-8 ovarian = tested on: OVCAR-8 ovarian
NCI-H23 lung = tested on: NCI-H23 lung
UO-31 renal = tested on: UO-31 renal
SNB-19 CNS = tested on: SNB-19 CNS
KM12 colon = tested on: KM12 colon
NCI-H460 lung = tested on: NCI-H460 lung
HCC-2998 colon = tested on: HCC-2998 colon
EKVX NSCLC = tested on: EKVX NSCLC
OVCAR-3 ovarian = tested on: OVCAR-3 ovarian
SK-MEL-2 melanoma = tested on: SK-MEL-2 melanoma
MCF7 breast = tested on: MCF7 breast
HS 578T breast = tested on: HS 578T breast
M14 melanoma = tested on: M14 melanoma
IGROV1 ovarian = tested on: IGROV1 ovarian
786-0 renal = tested on: 786-0 renal
LOX IMVI melanoma = tested on: LOX IMVI melanoma
SK-MEL-5 melanoma = tested on: SK-MEL-5 melanoma
HOP-62 NSCLC = tested on: HOP-62 NSCLC
SF-295 CNS = tested on: SF-295 CNS
A549 NSCLC = tested on: A549 NSCLC
MALME-3M melanoma = tested on: MALME-3M melanoma
SK-OV-3 ovarian = tested on: SK-OV-3 ovarian
HT29 colon = tested on: HT29 colon
NCI-H522 lung = tested on: NCI-H522 lung
PC-3 prostate = tested on: PC-3 prostate
DU-145 prostate = tested on: DU-145 prostate
HCT-116 colon = tested on: HCT-116 colon
COLO 205 colon = tested on: COLO 205 colon
RXF 393 renal = tested on: RXF 393 renal
OVCAR-5 ovarian = tested on: OVCAR-5 ovarian
SF-539 CNS = tested on: SF-539 CNS
T-47D breast = tested on: T-47D breast

Measured: TGI

CC1(C)/C(=N\O)C2(C#N)CCC1C2 (configuration not stated)
not listed: EKVX NSCLC | OVCAR-3 ovarian | SK-MEL-2 melanoma | MCF7 breast | HS 578T breast | M14 melanoma | IGROV1 ovarian | 786-0 renal | LOX IMVI melanoma | SK-MEL-5 melanoma | HOP-62 NSCLC | SF-295 CNS | A549 NSCLC | MALME-3M melanoma | SK-OV-3 ovarian | HT29 colon | NCI-H522 lung | PC-3 prostate | DU-145 prostate | HCT-116 colon | COLO 205 colon | RXF 393 renal | OVCAR-5 ovarian | SF-539 CNS | T-47D breast
> 100 µM: all other assays above

CC1(C)C2CCC(CN)(C2)C1O (configuration not stated)
not listed: OVCAR-3 ovarian | SK-MEL-2 melanoma | MCF7 breast | HS 578T breast | M14 melanoma | IGROV1 ovarian | 786-0 renal | LOX IMVI melanoma | SK-MEL-5 melanoma | HOP-62 NSCLC | SF-295 CNS | A549 NSCLC | MALME-3M melanoma | SK-OV-3 ovarian | HT29 colon | NCI-H522 lung | PC-3 prostate | DU-145 prostate | HCT-116 colon | COLO 205 colon | RXF 393 renal | OVCAR-5 ovarian | SF-539 CNS | T-47D breast
> 100 µM: all other assays above

Nc1cc(C(=O)O)[nH]c(=O)n1
not listed: SNB-75 CNS | SF-539 CNS | T-47D breast
> 100 µM: all other assays above

Cc1nc2ccc(Cl)cc2c2c1CCS2
77.7 µM: SK-MEL-5 melanoma
74.3 µM: MOLT-4 leukemia
86.6 µM: SR leukemia
65 µM: HL-60(TB) leukemia
99.2 µM: A498 renal
71.4 µM: RPMI-8226 leukemia
not listed: HOP-92 NSCLC | BT-549 breast | SNB-75 CNS | EKVX NSCLC
> 100 µM: all other assays above

C/C=C1/CN2CCc3c([nH]c4ccccc34)[C@@H]2C[C@@H]1Cc1[nH]ccc2c1[nH]c1cc(=O)ccc12
4.05 µM: EKVX NSCLC
5.15 µM: OVCAR-3 ovarian
2.94 µM: UO-31 renal
4.94 µM: A498 renal
3.62 µM: UACC-62 melanoma
6.88 µM: PC-3 prostate
3.73 µM: OVCAR-4 ovarian
3.34 µM: NCI-H23 lung
3.33 µM: SF-268 CNS
64.4 µM: NCI-H460 lung
4.26 µM: DU-145 prostate
37.6 µM: HOP-92 NSCLC
3.8 µM: CAKI-1 renal
4.4 µM: SK-OV-3 ovarian
31.4 µM: BT-549 breast
4.5 µM: SK-MEL-28 melanoma
3.36 µM: SNB-75 CNS
8.64 µM: OVCAR-5 ovarian
4.33 µM: TK-10 renal
3.17 µM: SN12C renal | OVCAR-8 ovarian
> 100 µM: K-562 leukemia | SR leukemia | ACHN renal | SW-620 colon | NCI-H226 lung | CCRF-CEM leukemia | MOLT-4 leukemia | SNB-19 CNS | COLO 205 colon
4.51 µM: MDA-N
3.19 µM: 786-0 renal
10.6 µM: HCT-15 colon
4.15 µM: HS 578T breast
3.49 µM: NCI/ADR-RES ovarian
4.78 µM: M14 melanoma
3.45 µM: MDA-MB-435
